Test system: Caco-2 permeability, B->A Papp, LC-MS/MS
Test: Inhibitors of Bloom's syndrome helicase: Caco-2 Permeability Profiling Assay
Conditions: hits give high values
Source text: Survival of cells and the faithful propagation of the genome depend on elaborate mechanisms of detecting and repairing DNA damage. Treatment of advanced cancer relies on radiation therapy or chemotherapy, which kill cancer cells by causing extensive DNA damage. It is often found, that cancer cells develop resistance to therapy through enhanced activity of DNA repair functions; this has led to an increased interest in developing drugs that interfere with DNA repair, which could sensitize cancer cells to conventional therapy. Bloom syndrome helicase (BLM), is important in resolving abnormal DNA structures formed during replication or homologous recombination. Shutting down the expression of BLM leads to chromosomal instability and higher radiation sensitivity in cultured cells. This permeability assay predicts the in vivo absorption of the lead across the intestinal lining by using a Caco-2 cell line and measuring the lead's […]. […] NIH Chemical Genomics Center [NCGC] NIH Molecular Libraries Probe Production Centers Network [MLPCN] MLSCN Grant: MH087284 PI Name: Dr. Opher Gileadi, Structural Genomics Consortium, University of Oxford, UK
1. […] The T0, LY and T90, LY plates are read by FlexStation 3 at excitation of 485 nm and emission of 535 nm to determine LY permeability. […]

For `O=C(Nc1ccc(F)c(C(F)(F)F)c1)Nc1nnc(-c2ccncc2)s1`, the permeability B->A Papp was 1 10^-6 cm/s.

From PubChem BioAssay AID504737 (National Center for Advancing Translational Sciences (NCATS), 2011)
